Laboratory results published in US20060069132A1, “Azolecarboxamide herbicides” (priority 2004, published 2006).

Experiments:
ducksalad = assay: Test B flooded paddy test; type: in vivo, Heteranthera limosa; conditions: 1000 g ai/ha, scale 0 to 100 (0 no effect, 100 complete control)
Summary of the method: (§1)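 Visual ratings, 0 (no effect) to 100 (complete control), made versus controls after 13–15 d greenhouse. Paddy plants treated at 2-leaf stage; postemergence plants at 1- to 4-leaf stage, 2–18 cm tall.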

wheat = assay: Test B postemergence herbicide test; type: in vivo, Triticum aestivum; design: key to Wheat plant response rating: 0 = no effect, 100 = complete control
Summary of the method: (§2)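 Treated at 2-leaf (paddy) or 1–4-leaf, 2–18 cm (postemergence); greenhouse 13–15 d; visual score vs control, 0 none to 100 complete control; dash = not tested.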

cocklebur = assay: Test B pre-/postemergence herbicide test; type: in vivo, Xanthium strumarium
Summary of the method: (§3)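 Visual rating, 0 (no effect) to 100 (complete control), versus untreated controls after 13–15 d in greenhouse. Pre- and postemergence applications (postemergence plants 2–18 cm, 1–4 leaves); flooded paddy arm at 2-leaf stage. Compounds in non-phytotoxic solvent plus surfactant.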

blackgrass = assay: Test B postemergence herbicide test; type: in vivo, Alopecurus myosuroides
Summary of the method: as §1

morningglory = assay: Test B pre-/postemergence herbicide test; type: in vivo, Ipomoea coccinea; conditions: for Morningglory plant response rating: scale 0 (no effect) to 100 (complete control)
Summary of the method: as §3

lambsquarters = assay: Test B pre-/postemergence herbicide test; type: in vivo, Chenopodium album
Summary of the method: (§4)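 Response was scored visually 13 to 15 days after treatment against untreated greenhouse controls, 0 meaning no effect and 100 complete control. Formulations (solvent mixture plus surfactant) went onto soil after planting, onto foliage of 1- to 4-leaf plants, and onto 2-leaf plants in a flooded paddy set including rice and barnyardgrass.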

rice = assay: Test B flooded paddy test; type: in vivo, Oryza sativa; conditions: 1000 g ai/ha, scale 0 to 100 (0 no effect, 100 complete control)
Summary of the method: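 Postemergence plants were sprayed with formulated test chemicals at 2 to 18 cm height (1- to 4-leaf stage); paddy species were grown to the 2-leaf stage. After 13 to 15 days in a greenhouse, injury was rated visually against untreated controls on a 0–100 scale (0 = no effect, 100 = complete control).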

pigweed = assay: Test B pre-/postemergence herbicide test; type: in vivo, Amaranthus retroflexus
Summary of the method: as §4

wild oat = assay: Test B postemergence herbicide test; type: in vivo, Avena fatua; conditions: scale 0 (no effect) to 100 (complete control)
Summary of the method: as §2

barnyardgrass [1] = assay: Test B flooded paddy test; type: in vivo, Echinochloa crus-galli; conditions: 1000 g ai/ha, scale 0 to 100 (0 no effect, 100 complete control)
Summary of the method: as §1

[2] = test system: small flower umbrella sedge; assay: Test B flooded paddy test; type: in vivo, Cyperus difformis; conditions: 1000 g ai/ha, scale 0 to 100 (0 no effect, 100 complete control)
Summary of the method: as §1

barnyardgrass [3] = assay: Test B pre-/postemergence herbicide test; type: in vivo, Echinochloa crus-galli
Summary of the method: as §3

velvetleaf = assay: Test B pre-/postemergence herbicide test; type: in vivo, Abutilon theophrasti
Summary of the method: as §4

giant foxtail = assay: Test B pre-/postemergence herbicide test; type: in vivo, Setaria faberi
Summary of the method: as §4

Surinam grass = assay: Test B pre-/postemergence herbicide test; type: in vivo, Urochloa decumbens
Summary of the method: as §4

[4] = Postemergence, 500 g ai/ha, visual rating after 13 to 15 days, scale 0 (no effect) to 100 (complete control)
[5] = postemergence, 125 g ai/ha, visual rating, scale 0 (no effect) to 100 (complete control)
[6] = Preemergence, 500 g ai/ha, scale 0 to 100
[7] = preemergence, 125 g ai/ha, 0 to 100 scale, 0 is no effect, 100 is complete control
[8] = 125 g ai/ha, visual rating, scale 0 (no effect) to 100 (complete control), postemergence
[9] = Postemergence, 500 g ai/ha, scale 0 (no effect) to 100 (complete control)
[10] = 125 g ai/ha, 0 is no effect, 100 is complete control, preemergence
[11] = postemergence, 500 g ai/ha, scale 0 to 100, 0 is no effect, 100 is complete control
[12] = 125 g ai/ha, visual rating, postemergence

CCOC(=O)c1cccc(NC(=O)c2cc(C(C)(C)C)nn2CCF)c1 [Compound 79]
Ducksalad plant response rating (ducksalad; visual rating, 13 to 15 days): 80 | Plant response rating, Wheat (wheat; [4]): 40 | Wheat plant response rating (wheat; [5]): 30 | Plant response rating, Cocklebur (cocklebur; [4]): 80 | Cocklebur plant response rating (cocklebur; [6]): 0 | Cocklebur plant response rating (cocklebur; [5]): 80 | Plant response rating, Cocklebur (cocklebur; [7]): 0 | Plant response rating, Blackgrass (blackgrass; Postemergence, 500 g ai/ha; visual rating after 13 to 15 days, scale 0 (no effect) to 100 (complete control)): 30 | Blackgrass plant response rating (blackgrass; postemergence, 125 g ai/ha; visual rating, scale 0 (no effect) to 100 (complete control)): 20 | Plant response rating, Morningglory (morningglory; [7]): 0 | Plant response rating, Lambsquarters (lambsquarters; [4]): 80 | Lambsquarters plant response rating (lambsquarters; [5]): 70 | Plant response rating, Lambsquarters (lambsquarters; [7]): 0 | Rice plant response rating (rice; visual rating, 13 to 15 days): 70 | Plant response rating, Pigweed (pigweed; [4]): 100 | Pigweed plant response rating (pigweed; [5]): 70 | Plant response rating, Pigweed (pigweed; [7]): 0 | Plant response rating, Oat, Wild (wild oat; Postemergence, 500 g ai/ha, visual rating after 13 to 15 days): 30 | Oat, Wild plant response rating (wild oat; postemergence, 125 g ai/ha, visual rating): 20 | Barnyardgrass plant response rating (barnyardgrass [1]; visual rating, 13 to 15 days): 60 | Sedge, Umbrella plant response rating ([2]; visual rating, 13 to 15 days): 90 | Plant response rating, Barnyardgrass (barnyardgrass [3]; [4]): 40 | Barnyardgrass plant response rating (barnyardgrass [3]; [6]): 10 | Barnyardgrass plant response rating (barnyardgrass [3]; [5]): 30 | Plant response rating, Barnyardgrass (barnyardgrass [3]; [7]): 0 | Plant response rating, Velvetleaf (velvetleaf; [4]): 80 | Velvetleaf plant response rating (velvetleaf; [5]): 70 | Plant response rating, Velvetleaf (velvetleaf; [7]): 10 | Plant response rating, Foxtail, Giant (giant foxtail; [4]): 40 | Foxtail, Giant plant response rating (giant foxtail; [6]): 10 | Foxtail, Giant plant response rating (giant foxtail; [5]): 30 | Plant response rating, Foxtail, Giant (giant foxtail; [7]): 10 | Plant response rating, Surinam Grass (Surinam grass; [4]): 40 | Surinam Grass plant response rating (Surinam grass; [5]): 30 | Plant response rating, Surinam Grass (Surinam grass; [7]): 0

CCNC(=O)c1cccc(NC(=O)c2nn(C(C)(C)CC)nc2CC)c1 [Compound 376]
Ducksalad plant response rating (ducksalad): 90 | Wheat plant response rating (wheat; [8]): 10 | Wheat plant response rating (wheat; 500 g ai/ha, scale 0 to 100, 0 no effect, 100 complete control, preemergence): 90 | Wheat plant response rating (wheat; [9]): 20 | Plant response rating (0 to 100 scale), Cocklebur (cocklebur; [10]): 0 | Cocklebur plant response rating (cocklebur; [8]): 20 | Cocklebur plant response rating (cocklebur; [11]): 30 | Blackgrass plant response rating (blackgrass; 125 g ai/ha; visual rating, scale 0 (no effect) to 100 (complete control); postemergence): 10 | Blackgrass plant response rating (blackgrass; postemergence, 500 g ai/ha; scale 0 to 100, 0 is no effect, 100 is complete control): 40 | Plant response rating (0 to 100 scale), Morningglory (morningglory; [10]): 10 | Morningglory plant response rating (morningglory; [12]): 30 | Morningglory plant response rating (morningglory; Postemergence, 500 g ai/ha): 60 | Plant response rating (0 to 100 scale), Lambsquarters (lambsquarters; [10]): 100 | Lambsquarters plant response rating (lambsquarters; [8]): 70 | Lambsquarters plant response rating (lambsquarters; [9]): 90 | Rice plant response rating (rice): 60 | Plant response rating (0 to 100 scale), Pigweed (pigweed; [10]): 100 | Pigweed plant response rating (pigweed; [8]): 70 | Pigweed plant response rating (pigweed; [9]): 90 | Oat, Wild plant response rating (wild oat; [12]): 20 | Oat, Wild plant response rating (wild oat; Postemergence, 500 g ai/ha): 40 | Barnyardgrass plant response rating (barnyardgrass [1]): 70 | Sedge, Umbrella plant response rating [2]: 80 | Plant response rating (0 to 100 scale), Barnyardgrass (barnyardgrass [3]; [10]): 80 | Barnyardgrass plant response rating (barnyardgrass [3]; [8]): 10 | Barnyardgrass plant response rating (barnyardgrass [3]; [11]): 40 | Plant response rating (0 to 100 scale), Velvetleaf (velvetleaf; [10]): 10 | Velvetleaf plant response rating (velvetleaf; [8]): 20 | Velvetleaf plant response rating (velvetleaf; [9]): 40 | Plant response rating (0 to 100 scale), Foxtail, Giant (giant foxtail; [10]): 70 | Foxtail, Giant plant response rating (giant foxtail; [8]): 30 | Foxtail, Giant plant response rating (giant foxtail; [11]): 60 | Plant response rating (0 to 100 scale), Surinam Grass (Surinam grass; [10]): 40 | Surinam Grass plant response rating (Surinam grass; [8]): 10 | Surinam Grass plant response rating (Surinam grass; [9]): 20
